Experimental findings from ChEMBL document CHEMBL1125853, “An acyliminium ion route to and Anti phe-gly dipeptide mimetics” (Bioorg Med Chem Lett, 1991) are described below.

Structures are written as SMILES.

This assay deals with Angiotensin-converting enzyme (Homo sapiens, UniProt P12821). Briefly: Inhibitory constant angiotensin converting enzyme.
Angiotensin-converting enzyme, sequence (P12821 whole entry): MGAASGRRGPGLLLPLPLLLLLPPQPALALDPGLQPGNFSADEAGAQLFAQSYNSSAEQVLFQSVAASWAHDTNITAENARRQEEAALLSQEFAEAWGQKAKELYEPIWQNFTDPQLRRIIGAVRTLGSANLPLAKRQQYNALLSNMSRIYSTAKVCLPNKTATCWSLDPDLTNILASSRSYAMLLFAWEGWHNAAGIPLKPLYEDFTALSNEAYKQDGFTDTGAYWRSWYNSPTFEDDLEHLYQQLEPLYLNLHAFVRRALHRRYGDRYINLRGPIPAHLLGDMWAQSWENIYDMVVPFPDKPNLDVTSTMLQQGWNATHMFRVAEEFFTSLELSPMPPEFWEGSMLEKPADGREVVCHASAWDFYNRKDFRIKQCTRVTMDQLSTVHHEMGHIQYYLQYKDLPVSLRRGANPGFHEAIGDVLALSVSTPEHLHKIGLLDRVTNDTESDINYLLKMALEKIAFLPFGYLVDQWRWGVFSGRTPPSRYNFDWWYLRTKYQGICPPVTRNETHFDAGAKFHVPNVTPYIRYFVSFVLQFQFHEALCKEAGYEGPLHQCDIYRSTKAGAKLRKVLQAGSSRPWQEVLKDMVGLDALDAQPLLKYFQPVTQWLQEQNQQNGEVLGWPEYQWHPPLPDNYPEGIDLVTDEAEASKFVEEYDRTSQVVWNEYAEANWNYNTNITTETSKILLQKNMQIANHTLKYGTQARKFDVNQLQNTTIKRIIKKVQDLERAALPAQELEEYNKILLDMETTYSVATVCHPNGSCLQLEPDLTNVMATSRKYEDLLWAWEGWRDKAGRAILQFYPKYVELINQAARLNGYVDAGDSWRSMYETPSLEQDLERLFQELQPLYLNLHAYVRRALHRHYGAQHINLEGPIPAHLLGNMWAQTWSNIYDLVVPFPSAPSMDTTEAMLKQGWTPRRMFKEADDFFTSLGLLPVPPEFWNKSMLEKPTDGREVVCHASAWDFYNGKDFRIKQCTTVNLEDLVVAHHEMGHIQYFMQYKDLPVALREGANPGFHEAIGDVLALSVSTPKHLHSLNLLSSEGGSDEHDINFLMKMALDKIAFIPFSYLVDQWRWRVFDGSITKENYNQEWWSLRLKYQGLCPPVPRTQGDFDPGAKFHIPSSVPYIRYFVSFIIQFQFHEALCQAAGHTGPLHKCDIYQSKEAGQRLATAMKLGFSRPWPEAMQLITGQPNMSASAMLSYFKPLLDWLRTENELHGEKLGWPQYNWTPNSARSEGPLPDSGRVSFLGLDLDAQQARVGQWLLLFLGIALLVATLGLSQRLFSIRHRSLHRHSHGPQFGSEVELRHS

For the compound `O=C(O)CN1Cc2ccccc2CC(N[C@H](CCc2ccccc2)C(=O)O)C1=O` (stereo partly specified), affinity was put at a Ki of 0.01 µM.
